Marks after values point to notes of the source that are not given here.
Tested on: SAMP8/Ta Slc mice
Experiment: Measurement of rotational motor activity in mouse (turning wheel; motor activity in light period)
Assay type: in vivo
Conditions: for Motor Activity in light period, % of Pre: Pre value = 100%; for Motor Activity in light period, %: n = 9
Description: Animals: SAMP8/Ta Slc mice (16 weeks old), and SAMR1/Ta Slc mice (16 weeks old) as control mouse were used. After breeding in a rearing room, they were used after the age of 6-month-old to 8-month-old. A sole isolation breeding was conducted during the breeding. AB system of Neuroscience Co. was used for measurement. The mice were put in separate cages, and the turning wheel's rotation number for every minute by mouse was measured, and the data was analyzed as a motor activity for every hour. A turning wheel was equipped in the cage for measurement. The number in which the mouse rotated the turning wheel was automatically counted every minute with AB system (Neuroscience Co.), and recorded with time course as an amount of movement (motor activity). Using the total value of turning wheel's rotation number in habituation stage, each group was evenly grouped. Compound A was dissolved in water for injection, and water for injection was used as a vehicle. The solution and vehicle were administered as drinking water, respectively. The drinking water was replaced with new one every week. Pre: Habituation period (1 week) First week: Vehicle/Compound A 0.1-0.2 mg/kg/day Second week: Vehicle/Compound A 0.1-0.2 mg/kg/day Third week: Vehicle/Compound A 1-2 mg/kg/day Fourth week: Vehicle/Compound A 1-2 mg/kg/day Fifth week: Vehicle/Compound A 1-2 mg/kg/day The number of rotational movement which was automatically counted every minute by AB system (Neuroscience Co.) was tallied for every hour. Calculation was carried out according to the following sequences. (i) By calculating according to the following mathematical formula: (rotational motor activity in light period of a day)/(rotational motor activity in light period of a day+rotational motor activity in dark period of a day)×100, motor activity % in light period was determined. (ii) The mean value of motor activity % in light period was calculated for every week, and was made a representative value for every week. (iii) In addition, in case that the value of Pre was made 100%, rate of change of motor activity % in light period after administration was shown as % of Pre value. Statistical analysis was performed with t-test or Paired t-test for vehicle administration group and compound A administration group of SAMP8.

[1] = 1st week, Compound A 0.1-0.2 mg/kg/day in drinking water
[2] = 2nd week, Compound A 0.1-0.2 mg/kg/day in drinking water
[3] = 3rd week, Compound A 1-2 mg/kg/day in drinking water
[4] = 4th week, Compound A 1-2 mg/kg/day in drinking water
[5] = 5th week, Compound A 1-2 mg/kg/day in drinking water

Question: Which results are given for `CCC(=O)NCC[C@@H]1CCc2ccc3c(c21)CCO3` [Compound A, (S)—N-[2-(1,6,7,8-tetrahydro-2H-indeno[5,4-b]furan-8-yl)ethyl]propionamide]?
Answer: abnormal behavior in light period of SAMP8 (0.1-0.2 then 1-2 mg/kg/day in drinking water): inhibit dose-dependently; Motor Activity in light period, % of Pre [1]: 97.67 % of Pre; Motor Activity in light period, % [1]: 30.95%; Motor Activity in light period, % of Pre [2]: 79.60 % of Pre; Motor Activity in light period, % [2]: 24.58%; Motor Activity in light period, % of Pre [3]: 70.25** % of Pre; Motor Activity in light period, % [3]: 22.82* %; Motor Activity in light period, % of Pre [4]: 74.77* % of Pre; Motor Activity in light period, % [4]: 23.75* %; Motor Activity in light period, % of Pre [5]: 71.64* % of Pre; Motor Activity in light period, % [5]: 21.18** %; change of the motor activity % in light period and the % of Pre value compared to the vehicle administered group (first and second week, 0.1-0.2 mg/kg/day in drinking water): there was not observed a change; motor activity % in light period and the % of Pre value compared to the vehicle-administered group (third to fifth week, 1-2 mg/kg/day in drinking water): decreased

From patent publication US20090306200A1, “Prophylactic or Therapeutic Agent for Nocturnal Conduct Disorder Associated With Dementia” (Takeda Pharmaceutical Company Limited, priority 2005, published 2009)
